From US20240047019A1, “MODEL-FREE TIME-INVARIANT EVALUATION OF TRANSPORT AND EFFICACY OF CHEMICALS AND DRUGS” (Seqvera Ltd. Oy, priority 2022, published 2024)
Where two headings read alike, the source gives them in different places.

Columns and labels:
[1] = system: L-type Ca^2+ current (ICa); conditions: steady-state conditions; cited from earlier work
[2] = system: L-type Ca^2+ current (ICa); test: calcium current (ICa) changes in ventricular myocytes with NCX inhibitor; format: cell-based, canine
Text: In this example the data from publication by Oravecz et.al. was used, where authors have attempted to clarify the underlying mechanism of the limited inotropic action of selective sodium-calcium exchange (NCX) inhibition by a novel inhibitor molecule (ORM-10962) on canine ventricular myocytes. […] The forward mode operation of NCX is considered as the main route of Ca^2+ removal balancing the Ca^2+influx generated by the L-type Ca^2+ current (ICa) and the reverse mode NCX activity. […] These experimental data have been analyzed in the present invention. […] In order to perform time convolution directly, the concentration of ORM-10962 should have been known in the target compartment, but here only the effect size (current measured) has been reported.

[3] = caffeine transport in membrane-separated chip, control tests (bare membrane); format: in vitro ADME; conditions: 0.25 mg/mL
Method: In this example data of caffeine transport measurements disclosed in publication are analyzed with a new method. […] The membrane had 0.4 micrometer pore size and was made of polyester track etched (PETE) insert, which was used bare (control tests) and with a double layer of cells (actual tests): human umbilical vein endothelial cells (HUVECs) and BeWo cells (derived from a human choriocarcinoma) to represent the endothelium in the fetal interface and the epithelium in the maternal interface. The mean data used are from three independent experiments.

[4] = system: placental barrier (HUVECs and BeWo cells); test: caffeine transport in placenta-on-a-chip, actual tests (double cells layer); format: in vitro ADME, human; conditions: 0.25 mg/mL
[5] = clinical; conditions: human, in vivo
Text: The method used in publication relies on fractional order derivatives with a multi-compartmental model using Laplace transform, which is not a common operation a lab technician usually able to perform. […] The resulting simplified equation for time changes of the concentration in the blood plasma (=the target compartment in the terminology of the recent invention), designated as c2(t) in [6], was expressed with six unknown parameters (d, k02, k21, α1, α2 and the lag time) as:
Clinical data of Popovic et al. have been used representing evaluation of diclofenac pharmacokinetics in a small number of healthy adults during a bioequivalence trial. In the spirit of the present invention, the data from were taken as cumulative concentration of diclofenac, averaged for all 12 patients. Here the initial mass of the drug was known of 100 mg, and the instant volume of distribution (VOD-2) was directly quantifiable by diving this mass for the measured cumulative concentration analyzed (Table 2).

[6] = cited from earlier work; for Tested c2(t): 100 mg, mean of 12, cumulative
[7] = gentamicin elution from coated Ti-6Al-4V disks into 2 mL distilled water at 37° C.; format: physicochemical; conditions: for c2(t), gentamicin concentration in the target compartment: distilled water 37° C.; for Remained in the coating: of 1395 μg/disk
Method: In this example the most detailed in vitro testing conditions have been used. Disk of diameter 15.5 mm and thickness of 2 mm made of medical titanium Grade 5 (Ti-6Al-4V) alloy were uniformly coated with a mixture of 1395 μg/disk gentamicin palmitate and 3745 μg/disk palmitic acid in triplicate (9 disks=3 disks×3 repetitions).
Disks were placed into a glass tube filled with 2 mL distilled water at constant temperature 37° C. and aliquots of 0.050 mL were periodically extracted without refilling the remining volume. The concentration of gentamicin in these samples was measured in mg/L and based on this, the amount of gentamicin in the remaining solution was calculated. The procedure was repeated until 336 h have been accumulated, and the average of three measurements has been calculated, Table 5.
After 336 hours of measurements, totally 0.5 mL of liquid is removed and about 60 μg of the drug is taken off the system. This represents of 25% of the total liquid volume and about 23.5% of the total drug released from the disk. With unknown solubility from the beginning, it is difficult to say how this drug removal affects the solubility rate, diffusion rate (concentration gradient uneven) and about the release kinetics in general (besides just making a curve fitting). As liquid is being periodically removed, the VOD-2 in the target compartment is getting smaller from 2 mL to 1.5 mL (being not constant) and thus the concentration of gentamicin there (c2(t)) is affected too.
For the method of the present invention, exact VOD-1 for the source compartment has been first calculated. For the density of gentamicin palmitate of 1.5 g/cc and palmitic acid of 0.86 g/cc, taking into account the disk surface area of 188.69 mm^2, the expected dense coating thickness is about 28 μm at the beginning of the test, leading to the VOD-1 value (for the source compartment) of 5.285 mm^3. Since VOD-2 is not constant due to aliquots takeoffs, the coefficient of partition is not constant either and will change with time, approaching an equilibrium value (Leq).

[8] = least-squares fit in [6], slow release 100 mg tablet

O=C(CN1CCC(O)CC1)Nc1ccc(Oc2ccc3c(c2)CCC(c2ccccc2)O3)nc1 (stereo not shown) [ORM-10962]
reduction of ICa amplitude in the presence vs. absence of the inhibitor [1]: significantly greater | efficacy parameter LCa ([2]; ICa change per μM of the added drug): 42.123 nA/μM | characteristic time ([2]; calcium current in myocytes): 1.69 s | non-dimensional transport constant K ([2]; calcium current in myocytes): 104.5

Cn1c(=O)c2c(ncn2C)n(C)c1=O [caffeine]
Characteristic time τ [3]: 40 min | Transport constant K [3]: 162.77 | kinetic parameter β [3]: 2.0-2.9 | Coefficient of partition Leq ([3]; Control (no cells)): 5.61 | Coefficient of partition Leq ([4]; Actual (double cells layer)): 35.5 | Characteristic time τ ([4]; human): 27 min | Transport constant K ([4]; human): 6697.34 | kinetic parameter β ([4]; human): 3.2-5.4

O=C(O)Cc1ccccc1Nc1c(Cl)cccc1Cl [diclofenac]
kinetic parameter β [5]: > 1 | Vd at 1 h ([5]; 100 mg): 522 L | Vd at 1.5 h ([5]; 100 mg): 56.1 L | Vd at 2 h ([5]; 100 mg): 21.2 L | Vd at 2.5 h ([5]; 100 mg): 13.7 L | Vd at 3 h ([5]; 100 mg): 10.5 L | Vd at 4 h ([5]; 100 mg): 8.97 L | Vd at 6 h ([5]; 100 mg): 8.11 L | Vd at 8 h ([5]; 100 mg): 7.78 L | Vd at 12 h ([5]; 100 mg): 7.75 L | Vd at 24 h ([5]; 100 mg): 7.69 L | Calculated c2(t) ([5]; 1 h): 0.141 mg/mL | Calculated c2(t) ([5]; 1.5 h): 1.216 mg/mL | Dr (generalized Deborah rate number) ([5]; 1.5 h): 644.65 ×10^6 | kinetic parameter β ([5]; 1.5 h): 5.538 | Calculated c2(t) ([5]; 2 h): 3.818 mg/mL | Dr (generalized Deborah rate number) ([5]; 2 h): 244.03 ×10^6 | kinetic parameter β ([5]; 2 h): 4.884 | Calculated c2(t) ([5]; 2.5 h): 6.832 mg/mL | Dr (generalized Deborah rate number) ([5]; 2.5 h): 124.66 ×10^6 | kinetic parameter β ([5]; 2.5 h): 4.480 | Calculated c2(t) ([5]; 3 h): 9.093 mg/mL | Dr (generalized Deborah rate number) ([5]; 3 h): 75.67 ×10^6 | kinetic parameter β ([5]; 3 h): 4.256 | Calculated c2(t) ([5]; 4 h): 11.349 mg/mL | Dr (generalized Deborah rate number) ([5]; 4 h): 37.46 ×10^6 | kinetic parameter β ([5]; 4 h): 3.875 | Calculated c2(t) ([5]; 6 h): 12.560 mg/mL | Dr (generalized Deborah rate number) ([5]; 6 h): 16.35 ×10^6 | kinetic parameter β ([5]; 6 h): 3.388 | Calculated c2(t) ([5]; 8 h): 12.846 mg/mL | Dr (generalized Deborah rate number) ([5]; 8 h): 10.07 ×10^6 | kinetic parameter β ([5]; 8 h): 3.266 | Calculated c2(t) ([5]; 12 h): 13.001 mg/mL | Dr (generalized Deborah rate number) ([5]; 12 h): 5.80 ×10^6 | kinetic parameter β ([5]; 12 h): 3.471 | Calculated c2(t) ([5]; 24 h): 13.073 mg/mL | Dr (generalized Deborah rate number) ([5]; 24 h): 3.07 ×10^6 | kinetic parameter β ([5]; 24 h): 3.388 | Tested c2(t) ([6]; 1.0 h): 0.192 mg/mL | Tested c2(t) ([6]; 1.5 h): 1.783 mg/mL | Tested c2(t) ([6]; 2.0 h): 4.725 mg/mL | Tested c2(t) ([6]; 2.5 h): 7.283 mg/mL | Tested c2(t) ([6]; 3 h): 9.500 mg/mL | Tested c2(t) ([6]; 4 h): 11.150 mg/mL | Tested c2(t) ([6]; 6 h): 12.333 mg/mL | Tested c2(t) ([6]; 8 h): 12.858 mg/mL | Tested c2(t) ([6]; 12 h): 12.900 mg/mL | Tested c2(t) ([6]; 24 h): 13.000 mg/mL | fitted parameter d of fractional compartmental model [6, 8]: 22.79±16.41 | fitted parameter k02 of fractional compartmental model [6, 8]: 1.51±1.05

gentamicin
Sample gentamicin amount, Average ([7]; average of S1-S3, 1 h): 187.2 µg | Sample gentamicin amount, Average ([7]; average of S1-S3, 3 h): 221.2 µg | Sample gentamicin amount, Average ([7]; average of S1-S3, 6 h): 171.9 µg | Sample gentamicin amount, Average ([7]; average of S1-S3, 24 h): 191.1 µg | Sample gentamicin amount, Average ([7]; average of S1-S3, 48 h): 195.1 µg | Sample gentamicin amount, Average ([7]; average of S1-S3, 72 h): 189.4 µg | Sample gentamicin amount, Average ([7]; average of S1-S3, 96 h): 199.9 µg | Sample gentamicin amount, Average ([7]; average of S1-S3, 168 h): 241.0 µg | Sample gentamicin amount, Average ([7]; average of S1-S3, 264 h): 247.5 µg | Sample gentamicin amount, Average ([7]; average of S1-S3, 336 h): 255.3 µg | c2(t), gentamicin concentration in the target compartment ([7]; 1 h): 93.6 mg/L | c2(t), gentamicin concentration in the target compartment ([7]; 3 h): 113.4 mg/L | c2(t), gentamicin concentration in the target compartment ([7]; 6 h): 90.5 mg/L | c2(t), gentamicin concentration in the target compartment ([7]; 24 h): 103.3 mg/L | c2(t), gentamicin concentration in the target compartment ([7]; 48 h): 108.4 mg/L | c2(t), gentamicin concentration in the target compartment ([7]; 72 h): 108.3 mg/L | c2(t), gentamicin concentration in the target compartment ([7]; 96 h): 117.6 mg/L | c2(t), gentamicin concentration in the target compartment ([7]; 168 h): 146.1 mg/L | c2(t), gentamicin concentration in the target compartment ([7]; 264 h): 154.7 mg/L | c2(t), gentamicin concentration in the target compartment ([7]; 336 h): 164.7 mg/L | Remained in the coating ([7]; 1 h): 1207.8 µg | Remained in the coating ([7]; 3 h): 1173.8 µg | Remained in the coating ([7]; 6 h): 1223.1 µg | Remained in the coating ([7]; 24 h): 1203.9 µg | Remained in the coating ([7]; 48 h): 1199.9 µg | Remained in the coating ([7]; 72 h): 1205.6 µg | Remained in the coating ([7]; 96 h): 1195.1 µg | Remained in the coating ([7]; 168 h): 1154.0 µg | Remained in the coating ([7]; 264 h): 1147.5 µg | Remained in the coating ([7]; 336 h): 1139.7 µg

gentamicin palmitate
kinetic parameter β ([7]; not constant, FIG. 12): well below unity
